From US8008487B2, “Substituted thieno[2,3-D]pyrimidines as fungicides” (priority 2004, dated 2011)

What was measured:
Format in all cases: in vivo
Cochliobolus sativus = test: Spot Blotch of Wheat (COCHSA), whole-plant fungicide test; conditions: Bipolaris sorokiniana, foliar, 24 h, 200 ppm on foliage, one-day protectant test, read-out: COCHSA percent control of disease
Description: The activity of the compounds as effective fungicides was determined by applying the compounds to plants and observing control of fungal disease. The compounds were formulated at 200 ppm in 10 vol. percent acetone plus 90 vol. percent Triton X water (deionized water 99.99 wt. percent+0.01 wt. percent Triton X100), giving a “formulated test compound.” In a few cases, compounds were formulated at 100, 75 or 8.3 ppm rather than 200 ppm in 10 vol. percent acetone plus 90 vol. percent Triton X water (deionized water 99.99 wt. percent+0.01 wt. percent Triton X100), giving a ‘formulated test compound’. The compounds were tested for ability to control plant diseases in a 1-day protectant test (1DP) or a 2-day curative test (2DC). Formulated test compounds were applied to plants using a turn table sprayer fitted with two opposing air atomization nozzles which delivered approximately 1500 L/ha of spray volume. Plants were inoculated with spores of the fungus the next day (1DP), then incubated in an environment conducive to disease development. In a few cases, the compounds were tested for ability to control plant disease in a two-day curative test. Plants were inoculated with spores of the fungus two days prior to compound application, and incubated in an environment conducive to disease development both before and after compound application (2DC). For all types of tests, disease severity was evaluated 4 to 28 days later, depending on the speed of disease development.
Each pot contained 3-8 seedlings. These plants were sprayed until wet with the formulated test compound. On the following day, the leaves were inoculated with an aqueous spore suspension of Cochliobolus sativus and the plants were kept in high humidity for one to two days to permit spores to germinate and infect the leaf. The plants were then transferred to a greenhouse until disease developed on untreated control plants.
The following table presents the activity of typical compounds of the present invention when evaluated in these experiments. The effectiveness of the test compounds in controlling disease was determined by assessing the severity of disease on treated plants, then converting the severity to percent control based on the level of disease on untreated, inoculated plants.
TABLE 4: Activity of compounds as fungicides. Data are the level at which the given disease was controlled when the given compound was applied to the foliage of the plant at 200 ppm. In a few cases (noted in the table) the compound was applied to the plant at 100, 75 or 8.3 ppm. The plant was inoculated with the fungus one day after treatment. In a few cases (noted in the table) the plant was inoculated with the fungus two days before treatment.

Colletotricum lagenarium = test: Cucumber Anthracnose (COLLLA), whole-plant fungicide test; conditions: 200 ppm on foliage, one-day protectant test; for pest or weed control at 200 ppm: Cucumis sativus, foliar, 24 h, read-out: COLLLA percent control of disease
Leptosphaeria nodorum = test: Glume Blotch of Wheat (LEPTNO), whole-plant fungicide test; conditions: 200 ppm on foliage, one-day protectant test; for pest or weed control at 200 ppm: Parastagonospora nodorum, foliar, 24 h, read-out: LEPTNO percent control of disease
Phytophthora infestans = test: whole plant or invertebrate; conditions: for pest or weed control at 200 ppm: foliar, read-out: PHYTIN percent control of disease, 200 ppm on foliage, tomato, one-day protectant test
[1] = test system: Erysiphe graminis f. sp. tritici; test: Powdery Mildew of Wheat (ERYSGT), whole-plant fungicide test; conditions: Blumeria graminis, foliar, 24 h, 200 ppm on foliage, one-day protectant test, read-out: ERYSGT percent control of disease
[2] = test system: Puccinia recondita tritici; test: Leaf Rust of Wheat (PUCCRT), whole-plant fungicide test; conditions: 200 ppm on foliage, one-day protectant test; for pest or weed control at 200 ppm: Puccinia recondita, foliar, 24 h, read-out: PUCCRT percent control of disease
Magnaporthe grisea = test: whole plant or invertebrate; conditions: for pest or weed control at 200 ppm: Pyricularia oryzae, in Oryza sativa, foliar, 24 h, read-out: PYRIOR percent control of disease, 200 ppm on foliage, rice, one-day protectant test
Septoria tritici = test: Speckled Leaf Blotch of Wheat (SEPTTR), whole-plant fungicide test; conditions: Zymoseptoria tritici, foliar, 24 h, 200 ppm on foliage, one-day protectant test, read-out: SEPTTR percent control of disease
Erysiphe cichoracaerum = test: Cucumber Powdery Mildew (ERYSCI), whole-plant fungicide test; conditions: Erysiphe, foliar, 24 h, 200 ppm on foliage, one-day protectant test, read-out: ERYSCI percent control of disease
[3] = Phytophthora infestans, in Solanum lycopersicum, 24 h

Structure (SMILES)	pest or weed control at 200 ppm (Cochliobolus sativus) [%]	COLLLA percent control of disease (Colletotricum lagenarium)	LEPTNO percent control of disease (Leptosphaeria nodorum)	PHYTIN percent control of disease (Phytophthora infestans; 200 ppm on foliage, tomato, one-day protectant test)	pest or weed control at 200 ppm [1] [%]	PUCCRT percent control of disease [2]	PYRIOR percent control of disease (Magnaporthe grisea; 200 ppm on foliage, rice, one-day protectant test)	pest or weed control at 200 ppm (Septoria tritici) [%]	pest or weed control at 200 ppm (Colletotricum lagenarium) [%]	pest or weed control at 200 ppm (Leptosphaeria nodorum) [%]	pest or weed control at 200 ppm (Phytophthora infestans; [3]) [%]	pest or weed control at 200 ppm [2] [%]	pest or weed control at 200 ppm (Magnaporthe grisea) [%]	pest or weed control at 200 ppm (Erysiphe cichoracaerum) [%]	pest or weed control at 100 ppm (Phytophthora infestans; Phytophthora infestans, in Solanum lycopersicum, 24 h, read-out: PHYTIN percent control of disease, 100 ppm (footnote a), tomato, one-day protectant test) [%]
CC(C)c1ccc(C(C)Nc2ncnc3scc(Cl)c23)cc1 (centres unmarked) [Compound 1, (5-Chlorothieno[2,3-d]pyrimidin-4-yl)-[1-(4-isopropylphenyl)ethyl]amine]	0 to 49	* (* is 0-49 percent control of disease)	*** (*** is 80-100 percent control of disease)	** (** is 50-79 percent control of disease)	80 to 100	*** (*** is 80-100 percent control of disease)	*** (*** is 80-100 percent control of disease)								
CC(Nc1ncnc2scc(Cl)c12)c1ccc(OCc2ccccc2)cc1 (centres unmarked) [Compound 2]	0 to 49				80 to 100			80 to 100	0 to 49	80 to 100	80 to 100	80 to 100	80 to 100		
Clc1csc2ncnc(NCCc3ccc(OCc4ccccc4)cc3)c12 [Compound 3]	0 to 49				80 to 100			80 to 100	0 to 49	80 to 100	80 to 100	80 to 100	80 to 100		
CC(C)c1ccc(CCNc2ncnc3scc(Cl)c23)cc1 [Compound 7]	50 to 79				80 to 100			50 to 79	0 to 49	50 to 79		80 to 100	80 to 100	80 to 100	80 to 100
Clc1csc2ncnc(NC3Cc4ccccc4C3)c12 [Compound 9]	80 to 100				0 to 49			0 to 49	0 to 49	50 to 79	80 to 100	80 to 100	80 to 100	80 to 100	
CC(Nc1ncnc2scc(Cl)c12)c1ccc[nH]1 (centres unmarked) [Compound 11]	0 to 49				0 to 49			50 to 79	0 to 49	50 to 79	0 to 49	50 to 79	50 to 79	0 to 49	
CC(Nc1ncnc2scc(Cl)c12)c1ccn(C)c1 (centres unmarked) [Compound 12]	0 to 49				0 to 49			0 to 49	0 to 49	50 to 79	80 to 100	50 to 79	80 to 100	0 to 49	
CC(Nc1ncnc2scc(Cl)c12)c1cccn1C (centres unmarked) [Compound 13]	0 to 49				0 to 49			0 to 49	0 to 49	0 to 49	0 to 49	0 to 49	50 to 79	0 to 49	
COCc1ccc(C(C)Nc2ncnc3scc(Cl)c23)cc1 (centres unmarked) [Compound 14]	0 to 49				80 to 100			80 to 100	80 to 100	80 to 100	80 to 100	80 to 100	80 to 100	80 to 100	
